# B1: MIF: recombinant human macrophage migration inhibitory factor (Peprotech 300-69) (protein, UniProt P14174 2-115, looked up)
# Macrophage migration …: PMFIVNTNVPRASVPDGFLSELTQQLAQATGKPPQYIAVHVVPDQLMAFGGSSEPCALCSLHSIGKIGGAQNRSYSKLLCGLLAERLRISPDRVYINYYDMNAANVGWNNSTFA
# Assays:
# MV4-11 cells [1] = assay: FACS of TKI-treated MV4-11 cells in vitro (viable blasts, Ki67, pBAD); type: cell-based, human; conditions: 3 days after the treatment
# Experimental: (§1) The AML cells were analyzed at different time points after exposure to TKI (3 days, 10 days, 20 days, and 28 days). […] After 3 days, FACS of the surface markers and intracellular proteins, including CD14, CD33, CD44, and Ki67, were performed. FIGS. 1A-1E depicts therapeutic effect of different TKIs on MV4-11 and MOLM-14 cells in vitro (N=6). […] The circles indicate the group of viable blasts located in a FACS plot and green arrows indicate the dying tendency of blasts which will become positive for viability dye during the next few days. FIGS. 1C and 1D are graphical representations of the cumulative FACS percentage data of viable MV4-11 and MOLM-14 cells. *P<0.05. […]
# (§2) Flow Cytometry (FACS). […] About 1×10^4˜10^6 cells in 100 μl FACS buffer (PBS containing 1% FBS and 0.05% sodium azide) were stained with various fluorescence-conjugated antibodies specific for the desired cell surface proteins at 4° C. for 30 min. The surface-stained cells were then fixed and permeabilized using the appropriate reagents (e.g. the BD Pharmingen Cytofix/Cytoperm buffer) and stained with different fluorescence-conjugated antibodies specific for the desired intracellular proteins at 4° C. for 2 hours in the permeabilizing buffer (e.g. the BD Perm/Wash buffer). […] Finally, the cells were washed twice in the permeabilizing buffer and twice in the FACS buffer before being analyzed on the BD FACSAria II. […]
# MOLM-14 cells [2] = assay: FACS of TKI-treated MOLM-14 cells in vitro (viable blasts, pBAD); type: cell-based, human; conditions: 3 days after the treatment
# Experimental: as §1, §2
# MV4-11 cells [3] = assay: FACS time course of CD44+pBAD+ and Ki67+CD33+CD44+ populations in TKI-treated MV4-11; type: cell-based, human
# From the text: (§3) To follow the cell fate of TKI-treated MV4-11 and MOLM-14, culturing of blasts were continued by performing medium change every 2-3 days. […] The BAD protein is a pro-apoptotic member of the BCL-2 gene family, which is involved in initiating apoptosis. Dephosphorylated BAD is pro-apoptotic by binding BCL-2 and inactivating BCL-2, while phosphorylated BAD (pBAD) is anti-apoptotic by leaving BCL-2 free to inhibit BAX-triggered apoptosis.
# (§4) Small Molecular Inhibitors and in vitro & ex vivo Treatment. […] The dose of 80 nM for the four TKIs was selected based on their dose-dependent cytotoxicity in previous reports. […] Both GILT and QUIZ were reported to start to suppress the tumorigenic clustering and c-Kit at the dose of 80 nM. […] The combination of 5 μM 5-Azacitidine (AZA) and 80 nM 1α,25-Dihydroxyvitamin D3 (VD3) was added to the experimental group similar to the previous report. As combination agents to treat blasts in vitro, one dose of 80 nM GILT with one dose of either 100 nM Venetoclax (BCL2 inhibitor), 10 μM (R)-Lisofylline (STAT4 inhibitor), 100 nM AZD1208 (PIM inhibitor), 500 nM PF-06826647 (TYK2 inhibitor), or 500 nM AT9283 (JAK2/3 inhibitor) were added to 1 ml of 1×10^6 cells for each experimental group in 24 well plates. Three days after the one dose treatment, cells were then collected for either analyses by FACS and qPCR, or re-plated into 24 well plates for continued culture. At different time points, re-plated cells were collected for analyses by FACS and qPCR. Medium change was performed every 2-3 days.
# (§5) Flow Cytometry (FACS). Cells were harvested and examined for the expression of cell surface biomarkers (CD) and intracellular proteins by multichromatic FACS as previously described. About 1×10^4˜10^6 cells in 100 μl FACS buffer (PBS containing 1% FBS and 0.05% sodium azide) were stained with various fluorescence-conjugated antibodies specific for the desired cell surface proteins at 4° C. for 30 min. The surface-stained cells were then fixed and permeabilized using the appropriate reagents (e.g. the BD Pharmingen Cytofix/Cytoperm buffer) and stained with different fluorescence-conjugated antibodies specific for the desired intracellular proteins at 4° C. for 2 hours in the permeabilizing buffer (e.g. the BD Perm/Wash buffer). Concentrations of the Abs were used per the manufacturers' recommendations. Finally, the cells were washed twice in the permeabilizing buffer and twice in the FACS buffer before being analyzed on the BD FACSAria II. Data was analyzed using the FlowJo software (Tree Star Inc., Ashland, OR).
# MV4-11 cells [4] = assay: Phase-bright imaging of re-growth of TKI-treated MV4-11; type: cell-based, human
# From the text: as §3, §4
# Imaging Acquisition. Phase-bright images were taken using an Olympus 1X71 inverted microscope and were processed using an Olympus cellSens Dimension 1.15 Imaging Software.
# MOLM-14 cells [5] = assay: Phase-bright imaging of re-growth of TKI-treated MOLM-14; type: cell-based, human; conditions: 10 days after TKI treatment
# From the text: as §3
# as §4, with “At different time points, re-plated cells were collected for analyses by FACS and qPCR. Medium change was performed every 2-3 days.” left out
# MV4-11 = conditions: 100 nM, cited from earlier work
# MV4-11 blasts = assay: GILT combined with MIF inhibitor or CXCR2 inhibitor on MV4-11 blasts in vitro (FACS); type: cell-based, human; conditions: for most effective dose on MV4-11 based on the FACS analyses: dose-dependent experiments with or without 80 nM GILT
# Experimental: (§6) Whether targeting the MIF-CXCR2 signaling pathway would effectively treat AML blasts were investigated. First, the combination of GILT with ribosomal protein S19 (RPS19) on MV4-11 blasts was tested in vitro. RPS19, a MIF inhibitor, has been reported to suppress cisplatin-activated MIF-CD74-NFκB signaling pathway in acute kidney injury. […] The combination of 80 nM GILT with 50 uM SB225002, a CXCR2-inhibitor (CXCR2-I) on MV4-11 blasts in vitro were examined. […] The anti-leukemic effect of combining GILT with CXCR2-I on primary BMMNC ex vivo were examined. […] There may be alternative cytokine pathways compensating for the defect of MIF-CXCR2 pathways.
# (§7) For MIF in vitro experiments, different doses of MIF were added to 1 ml of 1×10^6 MV4-11 cells or RAW264.7 cells for each experimental group in 24-well plates. Two days after the one dose treatment, cells were then collected for either analyses by FACS and qPCR. As combination agents to treat blasts in vitro or ex vivo, one dose of 80 nM GILT with one dose of different inhibitors were added to 1 ml of 1×10^6 MV4-11 cells or 1 ml of 0.5-1×10^6 primary AML BMMNC for each experimental group in 24-well plates. Dose-dependent experiments of CXCR2 inhibitor and NFκB inhibitor with or without 80 nM GILT were performed. […] Three days after the one dose treatment, cells were then collected for either analyses by FACS and qPCR.
# as §5
# primary AML BMMNC = assay: Ex vivo combination treatment of primary AML BMMNC (FACS, imaging, qPCR); type: cell-based, human; conditions: 80 nM GILT
# Experimental: as §6
# The combination of 80 nM GILT and 50 uM BAY11-7821 (a NFκB-I) was tested as a novel therapeutic approach for AML.
# Next, the anti-leukemic effect of the combination was examined on primary BMMNC from refractory AML patients (Patient #7, Table 4).
# Human Samples. AML bone marrow (BM) mononuclear cells (BMMNC) (Patients #1-7, Table 4) were obtained from the City of Hope National Medical Center (COHNMC). All donor patients signed an informed consent form. Sample acquisition was approved by the Institutional Review Boards at the LLUMC and the COHNMC in accordance with an assurance filed with and approved by the Department of Health and Human Services, and it met all requirements of the Declaration of Helsinki.
# as §7, §5
# RNA Isolation and Real-Time Polymerase Chain Reaction (qPCR) analysis. MV4-11 and MOLM-14 cells were cultured with the presence of TKI drugs for 72 hours or re-plated 28 days after the treatment of TKI drugs. Cells were isolated for RNA isolation and qPCR analysis as previously described. Total RNA was isolated using the RNeasy Micro Kit (Qiagen) according to the manufacturer's instruction. First-strand cDNA was synthesized using the SuperScript III Reverse Transcriptase (Invitrogen; Life Technologies). With an Applied Biosystems 7900HT Real-Time PCR machine, qPCR was performed and analyzed using known primers for the specific markers. The PCR conditions were 10 minutes at 95° C. followed by 40 cycles of 10 seconds at 95° C. and 15 seconds at 60° C. The relative expression level of a gene was determined using the ΔΔCt method and normalized to GAPDH.
# MV4-11 cells [6] = assay: Recombinant human MIF added to MV4-11 cultures (FACS Ki67, qPCR); type: cell-based
# Experimental: (§8) To examine the role of MIF in the proliferation of AML blasts, different doses of recombinant human MIF peptides were added to the cell cultures of MV4-11 (AML blast cell line). […] To investigate how MIF affects immune cells, MIF was tested on RAW264.7 (a macrophage cell line). […] The findings are consistent with a previous report that primary AML blasts constitutively express MIF, stimulating bone marrow mesenchymal cells to release CXCL8 (IL-8), a ligand that also binds to CXCR2, to sustain blasts' proliferation. In addition, CXCL1/5/8 were routinely and highly released (a median level >1000 pg/mL) in the supernatants of culturing naïve AML patient cells ex vivo.
# For MIF in vitro experiments, different doses of MIF were added to 1 ml of 1×10^6 MV4-11 cells or RAW264.7 cells for each experimental group in 24-well plates. Two days after the one dose treatment, cells were then collected for either analyses by FACS and qPCR. […]
# Flow Cytometry (FACS). […] About 1×10^4˜10^6 cells in 100 μl FACS buffer (PBS containing 1% FBS and 0.05% sodium azide) were stained with various fluorescence-conjugated antibodies specific for the desired cell surface proteins at 4° C. for 30 min. The surface-stained cells were then fixed and permeabilized using the appropriate reagents (e.g. the BD Pharmingen Cytofix/Cytoperm buffer) and stained with different fluorescence-conjugated antibodies specific for the desired intracellular proteins at 4° C. for 2 hours in the permeabilizing buffer (e.g. the BD Perm/Wash buffer). […] Finally, the cells were washed twice in the permeabilizing buffer and twice in the FACS buffer before being analyzed on the BD FACSAria II. Data was analyzed using the FlowJo software (Tree Star Inc., Ashland, OR).
# RNA Isolation and Real-Time Polymerase Chain Reaction (qPCR) analysis. […] With an Applied Biosystems 7900HT Real-Time PCR machine, qPCR was performed and analyzed using known primers for the specific markers. […] The relative expression level of a gene was determined using the ΔΔCt method and normalized to GAPDH.
# [7] = system: RAW264.7 (a macrophage cell line); assay: Recombinant human MIF added to RAW264.7 cultures (FACS Ki67); type: cell-based; conditions: 5 ng/ml MIF; 2 days
# Experimental: as §8, with “vivo. […]” for “vivo.”
# as §2
# [8] = MV4-11, 10 days after TKI treatment
# [9] = MV4-11, 20 days after TKI treatment
# [10] = MV4-11, 28 days after TKI treatment
# [11] = primary BMMNC ex vivo (Patient #2 and #3), 50 uM CXCR2-I
# [12] = newly diagnosed AML, Patient #5, 50 uM BAY11-7821
molecule,measurement,setting,value
"CNC(=O)c1cc(Oc2ccc(NC(=O)Nc3ccc(Cl)c(C(F)(F)F)c3)cc2)ccn1 [SORA, Sorafenib]",pBAD expression in MV4-11 (FACS),MV4-11 cells [1],significant increase
same,pBAD expression in MOLM-14 (FACS),MOLM-14 cells [2],significant increase
same,population of viable CD44+pBAD+ cells,MV4-11 cells [3]; [8],0.24%
same,population of viable Ki67+CD33+CD44+ cells,MV4-11 cells [3]; [8],2.54%
same,population of viable CD44+pBAD+ cells,MV4-11 cells [3]; [9],0.8%
same,population of viable Ki67+CD33+CD44+ cells,MV4-11 cells [3]; [9],1.62%
same,population of viable Ki67+CD33+CD44+ cells,MV4-11 cells [3]; [10],2.82%
same,newly formed blast clusters (morphology),MV4-11 cells [4]; 3 days after TKI treatment,observed
same,re-growth / tumorigenic clusters of MV4-11,MV4-11 cells [4]; 10 days after TKI treatment,grew confluent
same,re-growth / tumorigenic clusters of MOLM-14,MOLM-14 cells [5],grew confluent
same,apoptosis and cell cycle arrest in MV4-11,MV4-11; 72-hour treatment in vitro,significantly induce
"O=C(Nc1ccc([N+](=O)[O-])cc1O)Nc1ccccc1Br [CXCR2-I, SB225002]",percentage of Ki67+CD44+ blasts,"MV4-11 blasts; MV4-11, 80 nM GILT, 50 uM SB225002, 3 days",5.7%
same,most effective dose on MV4-11 based on the FACS analyses,MV4-11 blasts,50 µM
same,percentage of Ki67+CD13+ blasts,primary AML BMMNC; [11],14.3%
same,percentage of viable CD33+CD13+ primary blasts,primary AML BMMNC; [11],3.11%
"CO[C@@H]1[C@H](N(C)C(=O)c2ccccc2)C[C@H]2O[C@]1(C)n1c3ccccc3c3c4c(c5c6ccccc6n2c5c31)C(=O)NC4 [MIDO, Midostaurin]",population of viable CD44+pBAD+ cells,MV4-11 cells [3]; [8],0.2%
same,population of viable Ki67+CD33+CD44+ cells,MV4-11 cells [3]; [8],2.54%
same,population of viable CD44+pBAD+ cells,MV4-11 cells [3]; [9],0.43%
same,population of viable Ki67+CD33+CD44+ cells,MV4-11 cells [3]; [9],1.41%
same,population of viable CD44+pBAD+ cells,MV4-11 cells [3]; [10],1.23%
same,population of viable Ki67+CD33+CD44+ cells,MV4-11 cells [3]; [10],2.54%
same,reduction of viable MV4-11,MV4-11,60%
"Cc1ccc(S(=O)(=O)C=CC#N)cc1 [NFκB-I, BAY11-7082 (BAY11-7821)]",most effective dose on MV4-11 based on the FACS analyses,MV4-11 blasts,50 µM
same,percentage of Ki67+CD33+ proliferating blasts,primary AML BMMNC; [12],25%
same,percentage of viable CD33+CD13+ primary blasts,primary AML BMMNC; [12],0.14%
B1,MV4-11 proliferation (percentage of Ki67+),"MV4-11 cells [6]; 5 ng/ml MIF, the lowest dose, 2 days",induce MV4-11's proliferation
same,"gene expressions of CXCL1, CXCL5, CXCL8 (IL-8), CDK4 and CYCLIN E1","MV4-11 cells [6]; MV4-11, different doses of MIF, qPCR",effectively induce
same,CXCR2 expression in MV4-11 blasts,MV4-11 cells [6]; exogenous recombinant MIF in vitro,effectively induced
same,RAW264.7 proliferation (Ki67),[7],effectively suppressed
